In test [1] the target is human emopamil binding protein and human 7-dehydrocholesterol reductase co-expressing cells (hEBP-DHCR7 membrane) (Homo sapiens (Human), UniProt Q15125). Briefly: Radioligand filter binding assay on hEBP-DHCR7 membrane. The following applies: [3H]-(S)-6-(2-Methyl-3-(6-(trifluoromethyl)pyridin-3-yl)propyl)-2-thia-6-azaspiro[3.4]octane 2,2-dioxide radioligand, HEK293 membrane co-expressing hEBP and hDHCR7. Here is the method: Membrane Preparation: human emopamil binding protein and human 7-dehydrocholesterol reductase co-expressing cells were generated by transient transfecting host human embryonic kidney (HEK) 293 cells with 2 DNA constructs containing each protein's coding sequence. Cells were suspension cultured at 37° C. with 5% CO2 in […] 293 Expression Medium (Thermofisher). Whole cell membrane was prepared by harvesting the cell pellet, adding cold membrane buffer (50 mM Tris, pH7.5, lx Roche COMPLETE EDTA-free protease inhibitor cocktail) 10 times volume of the cell pellets weight, lysing cell pellet on ice by using Dounce homogenizer, spinning at 200 g 4° C. for 15 min, collecting supernatant and spinning again at 25000 g 4° C. for 50 min, transferring pellet to Dounce homogenizer, re-suspending pellet by homogenizing in membrane buffer on ice to reach ˜25 mg/mL, then keeping whole cell membrane aliquots at −80° C.
Compounds were prepared in a 96-well U bottom plate using an Echo550 machine and 10 mM compound DMSO stock solution, followed by an 8-dose 5-fold serial dilutions protocol with final testing compound concentration ranging from 0.06 to 5000 nM, with DMSO back fill to 100 nL/well and n=2. […] The UniFilter-96 GF/B plates were pre-treated by adding 50 μl/well of 0.3% (v/v) PEI to UniFilter-96 GF/B plates. The plates were sealed and incubated at 4° C. for 3 hrs. Then, the plates were washed with ice-cold assay buffer 3 times. The radioligand binding assay was prepared by adding assay buffer diluted hEBP-DHCR7 membrane at 66.7 μg/ml×150 μl/well into the 96-well compound plate to reach 10 μg membrane per well. Then, the assay buffer diluted [3H]—(S)-6-(2-Methyl-3-(6-(trifluoromethyl)pyridin-3-yl)propyl)-2-thia-6-azaspiro[3.4] octane 2,2-dioxide was added at 25 nM×50 μl/well. Following this, the plate was centrifuged at 1000 rpm for 30 secs. The plate was then sealed and agitated at 600 rpm at 22° C. for 5 min, and then incubated at 22° C. for 3 hrs. The incubation was stopped by transferring the binding solution to the pre-treated UniFilter-96 GF/B plate, vacuum filtrated, and then washed four times with ice-cold assay buffer. Following this, the plates were dried at 37° C. for 45 min. The plates were then sealed at the bottom. 40 μl/well of scintillation cocktail was added to the plates. A MicroBeta2 microplate counter was then used to read the plate and analyze the data. For reference and test compounds, the results are expressed as % Inhibition, using the normalization equation: N=100−100×(U−C2)/(C1−C2), where U is the unknown value, C1 is the average of high controls, and C2 is the average value of low controls. The IC50 was determined by fitting percentage of inhibition as a function of compound concentrations with Hill equation using XLfit. Results are expressed as hEBP-DHCR7 Ki (uM) in Table 4. Ki was calculated as described above. The asterix (*) indicates an isolated isomer or isolated group of isomers, but that the stereochemistry has not been assigned.

Test [2] has as its system EpiSC-derived OPCs. The experiment in a line: In vitro phenotypic screening of OPCs (MBP staining, high-content imaging). Type of test: cell-based, mouse. The following applies: Mus musculus, 72 h, percentage of MBP+ oligodendrocytes, 3 days, 0.5 nM to 1000 nM; read-out: OPC EC50. The procedure: To assess effects of treatments on OPCs, all treatments were assayed in two or more independent platings of epiblast stem cell-derived OPCs (EpiSC). EpiSC-derived OPCs were obtained using in vitro differentiation protocols and culture conditions described previously (Najm et al, 2011, Nature Methods). OPCs were expanded and frozen down in aliquots. OPCs were thawed into growth conditions for at least one passage before use in further assays.
EpiSC-derived OPCs were grown and expanded in poly-L-ornithine (PO) and laminin-coated flasks in N2B27 media (DMEM/F12 (Gibco), N2-MAX (R&D Systems), B-27 (ThermoFisher), and GlutaMax (Gibco)) supplemented with FGF2 ([…], R&D systems, 233-FB-025) and PDGF-AA ([…], R&D systems, 233-AA-050) before harvesting for experiments. The cells were seeded onto poly-L-ornithine or poly-D-lysine coated CellCarrier Ultra plates (PerkinElmer) coated with laminin (Sigma, L2020) at a density of 150,000/cm^2 in N2B27 media without growth factors. For dose-response testing, a 1000× compound stock in dimethyl sulphoxide (DMSO) was added to assay plates, resulting in 8-point dose curves with final concentrations between 1000 nM and 0.5 nM. Positive controls and DMSO vehicle controls were included in each assay plate. Cells were incubated under standard conditions (37° C., 5% CO2) for 3 days and fixed with 4% paraformaldehyde (PFA) in phosphate buffered saline (PBS) for 20 min. Fixed plates were washed with PBS, permeabilized with 0.1% Triton X-100, and blocked with 10% donkey serum (v/v) in PBS for 40 min. Then, cells were labelled with MBP antibodies (Abcam, ab7349; 1:200) for 2 h at room temperature, washed with PBS, and stained with Alexa Fluor conjugated secondary antibodies (1:500) for 45 min. Nuclei were visualized by DAPI staining (Sigma; 1 μg/ml), followed by further PBS washes.
Cells and cell culture plates were imaged on the Operetta High Content Imaging and Analysis system (PerkinElmer). Analysis (PerkinElmer Harmony and Columbus software) began by identifying intact nuclei stained by DAPI. The peri-nuclear region of each cell was then cross-referenced with the mature myelin protein (MBP) stain to identify oligodendrocyte nuclei, and from this the percentage of oligodendrocytes was calculated. EC50 values were calculated using The Levenberg-Marquardt algorithm to fit a Hill equation to dose-response data (0.5 nM to 1000 nM).

The subject of test [3] is EBP (zymostenol accumulation in EpiSC-derived OPCs). Briefly: GC/MS-based sterol profiling, zymostenol accumulation in OPCs. Type of test: cell-based, mouse. To be noted: Mus musculus, 24 h, EpiSC-derived OPCs, 24 hr treatment, 8 doses from 0.15 nM to 333 nM; read-out: Zymostenol GCMS EC50. The procedure:
To assess effects of treatments on OPCs, all treatments were assayed in two or more independent platings of epiblast stem cell-derived OPCs ([…]-derived OPCs were obtained using in vitro differentiation protocols and culture conditions described previously (Najm et al, 2011, Nature Methods). OPCs were expanded and frozen down in aliquots. OPCs were thawed into growth conditions for at least one passage before use in further assays. Sterols were monitored using a modified Folch wash protocol (Hubler et al, 2018, Nature). EpiSC-derived OPCs were plated at 100,000 cells per well in PO- and laminin-coated 96-well plates in N2B27 media without growth factors. After 24 hours, cells were rinsed with saline and plates were frozen. Cholesterol-d7 standard was then added to each well before drying under nitrogen stream and derivatization with 55 μl of bis(trimethylsilyl) trifluoroacetamide. After derivatization, 2 μl were analyzed by gas chromatography/mass spectrometry using an Agilent 5973 Network Mass Selective Detector equipped with a 6890 gas chromatograph system and a HP-5MS capillary column (30 m×0.25 mm×0.25 mm). Samples were analyzed in full scan mode using electron impact ionization; ion fragment peaks were integrated to calculate sterol abundance, and quantitation was relative to cholesterol-d7. […] All standards were obtained from Avanti Polar Lipids unless otherwise indicated. Calibration curves were generated by injecting varying concentrations of sterol standards and maintaining a fixed amount of cholesterol-D7. For normalized zymostenol accumulation results, the total amount of zymostenol measured after drug treatment was divided by the total amount of zymostenol accumulated after 24 hr treatment with 100 nM positive control reference.

human emopamil binding protein and human 7-dehydrocholesterol reductase co-expressing cells (hEBP-DHCR7 membrane), sequence (Q15125 whole entry): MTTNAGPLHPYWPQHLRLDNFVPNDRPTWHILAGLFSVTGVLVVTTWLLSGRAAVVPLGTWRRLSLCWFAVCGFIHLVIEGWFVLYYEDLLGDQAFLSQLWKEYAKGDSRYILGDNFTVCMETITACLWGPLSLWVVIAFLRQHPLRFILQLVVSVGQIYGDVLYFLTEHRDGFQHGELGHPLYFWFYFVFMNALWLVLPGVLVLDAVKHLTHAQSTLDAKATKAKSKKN

Broadly, the Ki is the equilibrium dissociation constant of an inhibitor or competing ligand from its target. For orientation: EC50 means the midpoint of the concentration-response curve. The compound `O=S1(=O)CC2(CCN([C@@H]3CCCN(c4ccc(C(F)(F)F)cc4)C3)CC2)C1` (single isomer, unassigned) [55A*] had a Ki in test [1] of 0.0028 µM. Besides, the EC50 in test [2] stood at 0.015 µM; in test [3], 0.0023 µM.

On to `CC(C)(C)n1nc(C(F)(F)F)cc1[C@H]1CC[C@@H](N2CCC3(CC2)CS(=O)(=O)C3)CC1` [Compound 85B, 7-((1s,4s)-4-(1-(tert-butyl)-3-(trifluoromethyl)-1H-pyrazol-5-yl)cyclohexyl)-2-thia-7-azaspiro[3.5]nonane 2,2-dioxide], for which affinity in test [1] was put at a Ki of 0.3 µM. Moreover, the values for the concentration for a half-maximal effect (EC50) in test [2] and in test [3] were 0.048 µM and 0.017 µM, respectively.

As to `O=S1(=O)CC2(CCN([C@H]3CC[C@H](c4ccc(C(F)(F)F)cn4)CC3)C2)C1` [Compound 49, 6-((1r,4r)-4-(5-(Trifluoromethyl)pyridin-2-yl)cyclohexyl)-2-thia-6-azaspiro[3.4]octane 2,2-dioxide], the concentration for a half-maximal effect (EC50) amounted to 0.015 µM in test [2] and 0.0099 µM in test [3].

Turning to `CC(C)n1nc(-c2ccc(C(F)(F)F)cc2)nc1[C@H]1CC[C@@H](N2CCC3(C2)CS(=O)(=O)C3)C1` (single isomer, unassigned) [53B*], in test [1], the affinity corresponds to a Ki of 0.0099 µM. Further, the half-maximal effective concentration (EC50) in test [2] was 0.0024 µM; in test [3], 0.00089 µM.

`CC(C)c1nc(C(F)(F)F)ccc1[C@H]1CC[C@H](N2CCC3(C2)CS(=O)(=O)C3)CC1` [Compound 65A, 6-((1r,4r)-4-(2-isopropyl-6-(trifluoromethyl)pyridin-3-yl)cyclohexyl)-2-thia-6-azaspiro[3.4]octane 2,2-dioxide]: the inhibition constant (Ki) in test [1] was 0.014 µM. Further, the concentration for a half-maximal effect (EC50) in test [2] was 0.0089 µM; in test [3], 0.0041 µM.

The compound `O=S1(=O)CC2(CCN([C@H]3CCC[C@H](c4ccc(C(F)(F)F)nc4)C3)CC2)C1` (single isomer, unassigned) [56B*] had an inhibitory constant (Ki) in test [1] of 0.17 µM. Besides, the concentration for a half-maximal effect (EC50) in test [2] was 0.87 µM; in test [3], 0.32 µM.

Compound `O=S1(=O)CC2(CCN(C3CC[C@H](c4nc(-c5cccc(C(F)(F)F)n5)nn4C4CC4)C3)CC2)C1` (stereo in doubt) [42D*, 7-((1R,3S)-3-(1-Cyclopropyl-3-(6-(trifluoromethyl)pyridin-2-yl)-1H-1,2,4-triazol-5-yl)cyclopentyl)-2-thia-7-azaspiro[3.5]nonane 2,2-dioxide] had an inhibition constant (Ki) in test [1] of 0.67 µM. In addition, the EC50 came out at 0.12 µM in test [2] and 0.045 µM in test [3].

Turning to `O=S1(=O)CC2(CCN([C@H]3CC[C@H](c4cnc(C(F)(F)F)c(F)c4)CC3)C2)C1` [Compound 72A, 6-((1r,4r)-4-(5-fluoro-6-(trifluoromethyl)pyridin-3-yl)cyclohexyl)-2-thia-6-azaspiro[3.4]octane 2,2-dioxide], the concentration giving a half-maximal response (EC50) in test [2] was determined as 0.018 µM; in test [3], 0.0094 µM.

For `O=S1(=O)CC[C@@]2(CCCN([C@H]3CC[C@@H](c4cc(C(F)(F)F)nn4C4CC4)CC3)C2)C1` (single isomer, unassigned) [69A*], in test [1], the affinity corresponds to a Ki of 0.024 µM. Besides, the EC50 turned out to be 0.0075 µM in test [2] and 0.0021 µM in test [3].

Consider `CC(C)n1nc(C(F)(F)F)cc1[C@H]1CCC[C@H](N2CCC3(CC2)CS(=O)(=O)C3)C1` (single isomer, unassigned) [78D*], for which affinity in test [1] was put at a Ki of 0.037 µM. Also, the EC50 in test [2] is 0.124 µM; in test [3] it was 0.019 µM.

Take `CC(C)n1nc(C(F)(F)F)cc1[C@H]1CC[C@@H](N2CCC[C@@]3(CCS(=O)(=O)C3)C2)CC1` (single isomer, unassigned) [91A*]: the results for the concentration giving a half-maximal response (EC50) in test [2] and in test [3] were 0.0094 µM and 0.0034 µM, respectively.

Consider `O=S1(=O)CC2(CCN([C@H]3CC[C@@H](c4ccc(C(F)(F)F)cn4)CC3)CC2)C1` [Compound 50B, 7-((1s,4s)-4-(5-(trifluoromethyl)pyridin-2-yl)cyclohexyl)-2-thia-7-azaspiro[3.5]nonane 2,2-dioxide], for which the half-maximal effective concentration (EC50) turned out to be 0.045 µM in test [2] and 0.032 µM in test [3].

For the compound `O=S1(=O)CC2(CCN([C@H]3CC[C@@H](c4ccnc(C(F)(F)F)c4)CC3)CC2)C1` [Compound 90A, 7-((1s,4s)-4-(2-(Trifluoromethyl)pyridin-4-yl)cyclohexyl)-2-thia-7-azaspiro[3.5]nonane 2,2-dioxide], the EC50 in test [2] worked out at 0.24 µM; in test [3] it was 0.031 µM.

Turning to `O=S1(=O)CC[C@@]2(CCCN([C@H]3CC[C@@H](c4ccc(C(F)(F)F)nc4)CC3)C2)C1` (single isomer, unassigned) [71A*], the half-maximal effective concentration (EC50) in test [2] is 0.019 µM; in test [3] it was 0.006 µM.

With `O=S1(=O)CC2(CCN([C@H]3CC[C@@H](c4ccc(C(F)(F)F)cn4)CC3)C2)C1` [Compound 96, 6-((1s,4s)-4-(5-(Trifluoromethyl)pyridin-2-yl)cyclohexyl)-2-thia-6-azaspiro[3.4]octane 2,2-dioxide], the EC50 stood at 0.11 µM in test [2] and 0.071 µM in test [3].

In the case of `O=S1(=O)CC2(CCN([C@H]3CC[C@H](c4ccc(C(F)(F)F)cn4)CC3)CC2)C1` [Compound 50A, 7-((1r,4r)-4-(5-(Trifluoromethyl)pyridin-2-yl)cyclohexyl)-2-thia-7-azaspiro[3.5]nonane 2,2-dioxide], the EC50 in test [2] was determined as 0.029 µM; in test [3] it was 0.026 µM.

Source of the values: patent publication US20240398781A1, “SPIROCYCLIC CYCLIC MODULATORS OF CHOLESTEROL BIOSYNTHESIS AND THEIR USE FOR PROMOTING REMYELINATION” (GENENTECH, INC., priority 2021, published 2024).
